Source: patent US20120122928A1 (priority 2010, published 2012)
Marks after values point to notes of the source that are not given here.

Key:
[1] = test system: Phytophthora infestans; type: in vivo; details: young tomato plants sprayed, active ingredient concentration of 100 (unit not given); inoculated 1 day after treatment; evaluation 7 days after inoculation; 100% = no infection
[2] = LC-MS determination in the acidic range, pH 2.7, 0.1% aqueous formic acid and acetonitrile
[3] = test system: Plasmopara viticola; assay: Plasmopara test (grapevine) / protective; type: in vivo; details: young grapevine plants sprayed, active ingredient concentration 10 ppm; evaluation 6 days after inoculation; 100% = no infection
Experimental: Plasmopara Test (Grapevine)/Protective
To produce an appropriate active ingredient formulation, 1 part by weight of active ingredient is mixed with the specified amounts of solvent and emulsifier, and the concentrate is diluted with water to the desired concentration.
To test for protective efficacy, young plants are sprayed with the active ingredient formulation at the stated application rate. After the spray coating has dried on, the plants are inoculated with an aqueous spore suspension of Plasmopara viticola and then remain in an incubation cabin at approx. 20° C. and 100% relative air humidity for 1 day. Subsequently, the plants are placed in a greenhouse at approx. 21° C. and approx. 90% air humidity for 4 days. The plants are then moistened and placed in an incubation cabin for 1 day.
Evaluation follows 6 days after the inoculation. 0% means an efficacy which corresponds to that of the control, whereas an efficacy of 100% means that no infection is observed.
In this test, the following inventive compounds show, at an active ingredient concentration of 10 ppm, an efficacy of 70% or more: […]

Row | Compound | % eff. [1] | Log P [a] [2] | % eff. [3]
1 | CON=Cc1ccccc1OCC1CC(c2csc(C3CCN(C(=O)Cn4nc(C(F)F)cc4C(F)F)CC3)n2)=NO1 (mixture of isomers) [I-60] | 94% | 3.39^[a]; 3.39^[b] | –
2 | O=C(Cn1nc(C(F)F)cc1C(F)F)N1CCC(c2nc(C3=NOC(COc4ccccc4C=NO)C3)cs2)CC1 (mixture of isomers) [I-64] | 95% | 2.62 | 73%
3 | O=C(Cn1nc(C(F)F)cc1C(F)F)N1CCC(c2nc(C3=NOC(COc4c(Cl)cccc4Cl)C3)cs2)CC1 (stereo not drawn) [I-1] | 100% | 3.7 | 100%
4 | CC(C)(c1ccccc1)C1CC(c2csc(C3CCN(C(=O)Cn4nc(C(F)F)cc4C(F)F)CC3)n2)=NO1 (stereo not drawn) [I-4] | 100% | 3.79^[a] | 97%
5 | O=C(Cn1nc(C(F)F)cc1C(F)F)N1CCC(c2nc(C3=NOC(C(F)c4ccccc4)C3)cs2)CC1 (stereo not drawn) [I-5] | 100% | 3.23^[a] | 100%
6 | O=C(CCC1CC(c2csc(C3CCN(C(=O)Cn4nc(C(F)F)cc4C(F)F)CC3)n2)=NO1)c1ccccc1 (stereo not drawn) [I-6] | 100% | 3.16 | 96%
7 | O=C(Cn1nc(C(F)F)cc1C(F)F)N1CCC(c2nc(C3=NOC(CS(=O)(=O)c4ccccc4)C3)cs2)CC1 (stereo not drawn) [I-7] | 100% | 2.65^[a]; 2.65^[b] | 96%
8 | O=C(Cn1nc(C(F)F)cc1C(F)F)N1CCC(c2nc(C3=NOC(C(O)c4ccccc4)C3)cs2)CC1 (stereo not drawn) [I-8] | 100% | 2.53^[a] | 93%
9 | O=C(Cn1nc(C(F)F)cc1C(F)F)N1CCC(c2nc(C3=NOC(CSc4ccccc4)C3)cs2)CC1 (stereo not drawn) [I-10] | 100% | 3.46 | 93%
10 | CC(C)(c1ccccc1)C1CC(c2csc(C3(F)CCN(C(=O)Cn4nc(C(F)F)cc4C(F)F)CC3)n2)=NO1 (stereo not drawn) [I-11] | 95% | 4.03^[a] | –
11 | CC(=O)c1ccccc1OCC1CC(c2csc(C3CCN(C(=O)Cn4nc(C(F)F)cc4C(F)F)CC3)n2)=NO1 (stereo not drawn) [I-12] | 100% | 2.93 | 70%
12 | Cc1ccccc1OCC1CC(c2csc(C3CCN(C(=O)Cn4nc(C(F)F)cc4C(F)F)CC3)n2)=NO1 (stereo not drawn) [I-13] | 100% | 3.5 | –
13 | CN(CC1CC(c2csc(C3CCN(C(=O)Cn4nc(C(F)F)cc4C(F)F)CC3)n2)=NO1)c1ccccc1 (stereo not drawn) [I-14] | 95% | 3.47 | –
14 | O=C(Cn1nc(C(F)F)cc1C(F)F)N1CCC(c2nc(C3=NOC(C(F)c4c(F)cccc4F)C3)cs2)CC1 (stereo not drawn) [I-17] | 95% | 3.36^[a] | 100%
15 | Fc1cccc(F)c1C(F)C1CC(c2csc(C3CCN(C(=S)Cn4nc(C(F)F)cc4C(F)F)CC3)n2)=NO1 (stereo not drawn) [I-18] | 95% | 3.81^[a] | 100%
16 | Cc1cc(C(F)(F)F)nn1CC(=O)N1CCC(c2nc(C3=NOC(C(F)c4ccccc4)C3)cs2)CC1 (stereo not drawn) [I-19] | 100% | 3.3^[a] | 94%
17 | Cc1cc(C(F)(F)F)nn1CC(=O)N1CCC(c2nc(C3=NOC(C(F)c4c(F)cccc4F)C3)cs2)CC1 (stereo not drawn) [I-20] | 95% | 3.48^[a] | 93%
18 | Cc1ccc(C)c(NC(=S)N2CCC(c3nc(C4=NOC(C(F)(F)c5ccccc5)C4)cs3)CC2)c1 (stereo not drawn) [I-21] | 95% | 3.86^[a] | 85%
19 | O=C(Cn1nc(C(F)F)cc1C(F)F)N1CCC(c2nc(C3=NOC(C(F)(F)c4c(F)cccc4F)C3)cs2)CC1 (stereo not drawn) [I-22] | 95% | 3.47^[a] | 100%
20 | O=C(Cc1cc(Cl)ccc1Cl)N1CCC(c2nc(C3=NOC(COc4ccccc4)C3)cs2)CC1 (stereo not drawn) [I-23] | 95% | 3.89 | 89%
21 | O=C(Nc1cc(C(F)F)ccc1C(F)F)N1CCC(c2nc(C3=NOC(C(F)c4ccccc4)C3)cs2)CC1 (stereo not drawn) [I-24] | 100% | 3.41^[a] | 94%
22 | Cc1cc(C(F)(F)F)nn1CC(=O)N1CCC(c2nc(C3=NOC(C(F)(F)c4ccccc4)C3)cs2)CC1 (stereo not drawn) [I-25] | 100% | 3.55^[a] | 94%
23 | COc1ccccc1OCC1CC(c2csc(C3CCN(C(=O)Cn4nc(C(F)F)cc4C(F)F)CC3)n2)=NO1 (stereo not drawn) [I-26] | 100% | 3.01 | 96%
24 | Cc1ccc(C)c(NC(=S)N2CCC(c3nc(C4=NOC(C(F)(F)c5c(F)cccc5F)C4)cs3)CC2)c1 (stereo not drawn) [I-27] | 90% | 3.81^[a] | 92%

Row | Compound | % eff. [1] | Log P [a] [2] | % eff. [3]
25 | Cc1cc(C(F)(F)F)nn1CC(=O)N1CCC(c2nc(C3=NOC(C(F)(F)c4c(F)cccc4F)C3)cs2)CC1 (stereo not drawn) [I-28] | 100% | 3.51^[a] | 98%
26 | Cc1ccc(C)c(CC(=O)N2CCC(c3nc(C4=NOC(COc5ccccc5)C4)cs3)CC2)c1 (stereo not drawn) [I-29] | 100% | 3.71 | 78%
27 | O=C(Nc1cc(C(F)F)ccc1C(F)F)N1CCC(c2nc(C3=NOC(C(F)c4c(F)cccc4F)C3)cs2)CC1 (stereo not drawn) [I-30] | 95% | 3.60^[a] | 100%
28 | Cc1ccc(C)c(NC(=S)N2CCC(c3nc(C4=NOC(C(F)c5c(F)cccc5F)C4)cs3)CC2)c1 (stereo not drawn) [I-32] | 94% | 3.80^[a] | 78%
29 | Cc1ccc(Cl)cc1NC(=O)N1CCC(c2nc(C3=NOC(COc4ccccc4)C3)cs2)CC1 (stereo not drawn) [I-33] | 100% | 3.54 | –
30 | FC(F)c1cc(C(F)F)n(CC(=S)N2CCC(c3nc(C4=NOC(COc5ccccc5)C4)cs3)CC2)n1 (stereo not drawn) [I-34] | 100% | 3.73 | 96%
31 | O=C(Nc1cc(C(F)F)ccc1C(F)F)N1CCC(c2nc(C3=NOC(C(F)(F)c4c(F)cccc4F)C3)cs2)CC1 (stereo not drawn) [I-35] | 95% | 3.61^[a] | 100%
32 | Cc1cc(C(F)(F)F)nn1CC(=O)N1CCC(c2nc(C3=NOC(COc4ccccc4)C3)cs2)CC1 (stereo not drawn) [I-37] | 100% | 3.27 | 97%
33 | COc1ccc(C)cc1NC(=O)N1CCC(c2nc(C3=NOC(COc4ccccc4)C3)cs2)CC1 (stereo not drawn) [I-38] | 100% | 3.59 | –
34 | Cc1ccc(C)c(NC(=S)N2CCC(c3nc(C4=NOC(C(F)c5ccccc5)C4)cs3)CC2)c1 (stereo not drawn) [I-39] | 100% | 3.61^[a] | 78%
35 | C[Si](C)(c1ccccc1)C1CC(c2csc(C3CCN(C(=O)Cn4nc(C(F)F)cc4C(F)F)CC3)n2)=NO1 (stereo not drawn) [I-40] | 100% | 4.01 | 92%
36 | Cc1ccc(C)c(NC(=O)N2CCC(c3nc(C4=NOC(COc5ccccc5)C4)cs3)CC2)c1 (stereo not drawn) [I-41] | 100% | 3.36 | 94%
37 | Fc1cccc(F)c1C(F)(F)C1CC(c2csc(C3CCN(C(=S)Cn4nc(C(F)F)cc4C(F)F)CC3)n2)=NO1 (stereo not drawn) [I-42] | 95% | 3.94^[a] | 100%
38 | O=C(Cn1nc(C(F)F)cc1C(F)F)N1CCC(c2nc(-c3cc(COc4ccccc4)on3)cs2)CC1 [I-44] | 95% | 3.63 | 100%
39 | Cc1cc(C(F)F)nn1CC(=O)N1CCC(c2nc(C3=NOC(COc4c(Cl)cccc4Cl)C3)cs2)CC1 (stereo not drawn) [I-45] | 93% | 3.35 | 100%
40 | Cc1cc(C(F)(F)F)nn1CC(=O)N1CCC(c2nc(C3=NOC(COc4c(F)cccc4Cl)C3)cs2)CC1 (stereo not drawn) [I-46] | 95% | 3.54 | 98%
41 | CC(O)(c1c(F)cccc1F)C1CC(c2csc(C3CCN(C(=O)Cn4nc(C(F)F)cc4C(F)F)CC3)n2)=NO1 (stereo not drawn) [I-47] | 93% | 3.03 | 95%
42 | Cc1cc(C(F)F)nn1CC(=O)N1CCC(c2nc(C3=NOC(COc4c(F)cccc4F)C3)cs2)CC1 (stereo not drawn) [I-48] | – | 3.01 | 96%
43 | O=C(Cn1nc(C(F)F)cc1C(F)F)N1CCC(c2nc(C3=NOC(C(O)(c4ccccc4)C(F)(F)F)C3)cs2)CC1 (stereo not drawn) [I-49] | 97% | 3.2 | –
44 | Cc1ccc(Cl)cc1NC(=O)N1CCC(c2nc(C3=NOC(COc4c(F)cccc4F)C3)cs2)CC1 (stereo not drawn) [I-50] | 92% | 3.66 | 97%
45 | CC(C)(c1c(F)cccc1Cl)C1CC(c2csc(C3CCN(C(=O)Nc4cc(C(F)F)ccc4C(F)F)CC3)n2)=NO1 (stereo not drawn) [I-53] | 91% | 4.53 | –
46 | Cc1ccccc1SCC1CC(c2csc(C3CCN(C(=O)Cn4nc(C(F)F)cc4C(F)F)CC3)n2)=NO1 (stereo not drawn) [I-70] | 95% | 3.78 | –
47 | O=Cc1ccccc1OCC1CC(c2csc(C3CCN(C(=O)Cn4nc(C(F)F)cc4C(F)F)CC3)n2)=NO1 (stereo not drawn) [I-73] | 90% | 2.83^[a]; 2.83^[b] | –
48 | O=C(Cn1nc(C(F)F)cc1C(F)F)N1CCC(c2nc(C3=NOC(COc4c(F)cccc4Br)C3)cs2)CC1 (stereo not drawn) [I-75] | – | 3.67 | 98%
